In patent US20070099911A1, “Pyrroloquinolinone derivatives as 5-hydroxytryptamine-6 ligands” (Wyeth, priority 2005, published 2007):
Structures can show the parent of a compound that is named as a salt.

Molecular target: T1, human cloned 5-HT6 receptors (Homo sapiens, UniProt P50406)
T1 construct: expressed in transfected cells; host or cells: HeLa cells (membrane preparation)
Assay: Comparative evaluation of 5-HT6 binding affinity ([3H]-LSD displacement, Hela cell membranes)
Settings: not given
Description: Comparative Evaluation of 5-HT6 Binding Affinity of Test Compounds
The affinity of test compounds for the 5-HT6 receptor is evaluated in the following manner. Cultured Hela cells expressing human cloned 5-HT6 receptors are harvested and centrifuged at low speed (1,000×g) for 10.0 min to remove the culture media. The harvested cells are suspended in half volume of fresh physiological phosphate buffered saline (PBS) solution and recentrifuged at the same speed. This operation is repeated. The collected cells are then homogenized in ten volumes of 50 mM Tris.HCl (pH 7.4) and 0.5 mM EDTA. The homogenate is centrifuged at 40,000×g for 30.0 min, and the precipitate is collected. The obtained pellet is resuspended in 10 volumes of Tris.HCl buffer and recentrifuged at the same speed. The final pellet is suspended in a small volume of Tris.HCl buffer, and the tissue protein content is determined in aliquots of 10-25 microliter volumes. Bovine Serum Albumin is used as the standard in the protein determination according to the method described in Lowry et al., J. Biol. Chem. 1951, 193, 265. The volume of the suspended cell membranes is adjusted to give a tissue protein concentration of 1.0 mg/ml of suspension. The prepared membrane suspension (10 times concentrated) is aliquoted in 1.0 ml volumes and stored at −70° C. until used in subsequent binding experiments.
The reaction is allowed to proceed in the dark for 120 min at room temperature, at which time, the bound ligand-receptor complex is filtered off on a 96-well unifilter with a Packard Filtermate® 196 Harvester. The bound complex caught on the filter disk is allowed to air dry, and the radioactivity is measured in a Packard TopCount® equipped with six photomultiplier detectors, after the addition of 40.0 micoliters Micorscint®-20 scintillant to each shallow well. The unifilter plate is heat-sealed and counted in a Packard TopCount® with a tritium efficiency of 31%.
Specific binding to eh 5-HT6 receptor is defined as the total radioactivity bound less the amount bound in the presence of […] unlabelled methiothipin. Binding in the presence of varying concentrations of test compound is expressed as a percentage of specific binding in the absence of test compound. The results are plotted as log % bound versus log concentration of the test compound. […] A linear regression is plotted, from which the IC50 value is determined, and the Ki value is determined based upon the following equation: Ki=IC50/(1+L/KD) where L is the concentration of the radioactive ligand used and KD is the dissociation constant of the ligand for the receptor, both expressed in nM.

T1 sequence (P50406 whole entry): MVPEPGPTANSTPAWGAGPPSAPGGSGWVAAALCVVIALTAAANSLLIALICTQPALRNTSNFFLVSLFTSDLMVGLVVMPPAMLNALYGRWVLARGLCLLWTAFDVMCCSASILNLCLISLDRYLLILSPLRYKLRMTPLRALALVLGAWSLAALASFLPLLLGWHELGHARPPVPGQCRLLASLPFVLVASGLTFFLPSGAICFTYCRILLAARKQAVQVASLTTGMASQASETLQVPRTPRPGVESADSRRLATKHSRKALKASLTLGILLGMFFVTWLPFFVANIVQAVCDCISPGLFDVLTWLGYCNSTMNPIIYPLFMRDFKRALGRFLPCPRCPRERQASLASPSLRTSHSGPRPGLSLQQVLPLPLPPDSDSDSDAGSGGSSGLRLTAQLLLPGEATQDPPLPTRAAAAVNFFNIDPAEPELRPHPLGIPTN

Row | SMILES | Ki [nM]
1 | Cn1ccc2c(ccc3[nH]cc(CCN)c32)c1=O [Example 94] | 18
2 | NCCc1c[nH]c2ccc3c(=O)n(Cc4ccccc4)ccc3c12 [Example 182] | 11
3 | NCCc1c[nH]c2ccc3c(=O)n(CC4CCCCC4)ccc3c12 [Example 269, 1-(2-aminoethyl)-7-cyclohexylmethyl-3H,7H-pyrrolo[3,2-]isoquinolin-6-one] | 13
4 | NCCc1c[nH]c2ccc3c(=O)n(Cc4ccsc4)ccc3c12 [Example 274, 1-(2-aminoethyl)-7-thiophen-3-ylmethyl-3H,7H-pyrrolo[3,2-f]isoquinolin-6-one] | 11
5 | CNCCc1c[nH]c2ccc3c(=O)[nH]ccc3c12 [Example 1021, 1-(2-methylaminoethyl)-3H,7H-pyrrolo[3,2-f]isoquinolin-6-one] | 21
6 | NCCc1c[nH]c2ccc3c(=O)n(Cc4ccccc4)cnc3c12 [Example 1029] | 32

Same assay, conditions: [3H]-LSD displacement, membranes of Hela cells expressing human cloned 5-HT6 receptors; read-out: 5-HT6 binding Ki

Row | Ki [nM] | SMILES
7 | 15 | O=c1[nH]ccc2c3c(ccc12)N=CC3CCNCc1ccccc1 (stereo not shown) [Example 7A, 1-(2-Benzylaminoethyl)-6,7-dihydro-1H-pyrrolo[3,2-f]isoquinolin-6-one]

System: not given
Assay: not given
Settings: not given

Row | SMILES | melting point
8 | Cn1cnc2c(ccc3[nH]cc(CCN)c32)c1=O | 279 to 285 °C
9 | NCCc1c(Br)[nH]c2ccc3c(=O)[nH]ccc3c12 (as salt: HBr) | 252 °C (dec.)
10 | O=c1[nH]ccc2c1ccc1[nH]cc(CCN(Cc3ccccc3)Cc3ccccc3)c12 (as salt: HCl) | 250 to 253 °C
11 | CNCCc1c[nH]c2ccc3c(=O)[nH]ccc3c12 (as salt: HCl) [Example 1021, 1-(2-methylaminoethyl)-3H,7H-pyrrolo[3,2-f]isoquinolin-6-one] | 160 °C
12 | CN(CCc1c[nH]c2ccc3c(=O)[nH]ccc3c12)Cc1ccccc1 (as salt: hydrochloride) | 152 to 155 °C
13 | NCCc1c[nH]c2ccc3c(=O)n(CCc4ccccc4)ccc3c12 (as salt: hydrochloride) | 162 to 166 °C
14 | CCn1ccc2c(ccc3[nH]cc(CCN)c32)c1=O (as salt: hydrochloride) | 224 to 227 °C
15 | Cn1ccc2c(ccc3[nH]cc(CCN)c32)c1=O (as salt: hydrochloride) [Example 94] | 295 to 298 °C
16 | NCCc1c[nH]c2ccc3c(=O)n(Cc4ccccc4)ccc3c12 (as salt: hydrochloride) [Example 182] | 266 to 268 °C
17 | NCCc1c[nH]c2ccc3c(=O)n(CC4CCCCC4)ccc3c12 (as salt: hydrochloride) [Example 269, 1-(2-aminoethyl)-7-cyclohexylmethyl-3H,7H-pyrrolo[3,2-]isoquinolin-6-one] | 220 to 224 °C
18 | NCCc1c[nH]c2ccc3c(=O)n(Cc4ccccc4)cnc3c12 [Example 1029] | 302 to 305 °C

The next lines start with the values.

Row | melting point | SMILES
19 | 210 °C | O=c1[nH]ccc2c3c(ccc12)N=CC3CCNCc1ccccc1 (stereo not shown) (as salt: HCl) [Example 7A, 1-(2-Benzylaminoethyl)-6,7-dihydro-1H-pyrrolo[3,2-f]isoquinolin-6-one]
20 | 205 to 208 °C | Cn1ccc2c(ccc3[nH]cc(CCNCCc4ccccc4)c32)c1=O (as salt: HCl) [Example 95, 7-methyl-1-(2-phenethylaminoethyl)-3H,7H-pyrrolo[3,2-f]isoquinolin-6-one]
21 | 234 to 236 °C | O=c1c2ccc3c(c(CCN(Cc4ccccc4)Cc4ccccc4)cn3Cc3ccccc3)c2ccn1Cc1ccccc1 (as salt: HCl) [Example 1018, 3,7-dibenzyl-1-(2-dibenzylaminoethyl)-3H,7H-pyrrolo[3,2-f]isoquinolin-6-one]
22 | 260 to 262 °C | NCCc1c[nH]c2ccc3c(=O)n(CC4CCCCO4)ccc3c12 (stereo not shown) (as salt: hydrochloride)
23 | 247 to 249 °C | NCCc1c[nH]c2ccc3c(=O)n(Cc4ccc(F)cc4)ccc3c12 (as salt: hydrochloride)
24 | > 250 °C | NCCc1c[nH]c2ccc3c(=O)n(Cc4ccccc4F)ccc3c12 (as salt: hydrochloride)
25 | > 280 °C | NCCc1c[nH]c2ccc3c(=O)[nH]ccc3c12 (as salt: hydrochloride)
26 | 225 to 230 °C | NCCCc1c[nH]c2ccc3c(=O)[nH]ccc3c12 (as salt: hydrochloride) [Example 268, 1-(3-aminopropyl)-3H,7H-pyrrolo[3,2-f]isoquinolin-6-one]
27 | > 300 °C | NCCc1c(-c2ccc(Cl)cc2)[nH]c2ccc3c(=O)[nH]ccc3c12 (as salt: hydrochloride) [Example 278, 1-(2-aminoethyl)-2-(4-chlorophenyl)-3H,7H-pyrrolo[3,2-f]isoquinolin-6-one]
28 | 205 to 206 °C | O=c1c2ccc3[nH]cc(CCNS(=O)(=O)c4ccccc4)c3c2ccn1Cc1ccccc1 [Example 1022, N-[2-(7-benzyl-6-oxo-6,7-dihydro-3H-pyrrolo[3,2-f]isoquinolin-1-yl)-ethyl]-benzenesulfonamide]
